US20210198313A1, “METHOD OF PRODUCING IMIDAZOLE DIPEPTIDES” (Tokai Bussan Co., Ltd., priority 2019, published 2021)

What was measured:
[1] = Titration of 0.1 M aqueous solutions with 0.1 N sulfuric acid and 0.1 N sodium hydroxide to determine dissociation constants and charge state; type: physicochemical
Source text: In view of the difference between the adsorption behaviors of imidazole dipeptides, including anserine and carnosine, and creatinine on a strongly acidic cation exchange resin, each electrical dissociation behavior of the compounds with respect to pH values was experimentally measured by the titration method as mentioned below. The terms “pK” and “pI” are the dissociation constant and the isoelectric point, respectively.
The 0.1 M aqueous solutions of L-anserine, L-carnosine and creatinine were prepared and the titration curves were generated with 0.1 N sulfuric acid and 0.1 N sodium hydroxide according to known methods. From each titration curve, pK1, pKR and pK2 were determined.
In Table 1, with respect to anserine and carnosine, pK1 represents the dissociation of carboxyl group, pKR represents the dissociation of imidazole group, and pK2 represents the dissociation of amino group. With respect to creatinine, pKR represents the dissociation of imidazole group.
Based on the measured results, the state of the charge of anserine, carnosine and creatinine at each pH value is shown in FIG. 1.

[2] = cited from earlier work
[3] = Dissociation constants disclosed in published references; type: physicochemical; conditions: converted from literature pKb 9.20
Source text: For example, Bate-Smith (Bate-Smith, E. C., J. Physiol. (London) 92, 336 (1938)) discloses the results that pK2 of carnosine was 6.83, and Doutsch et al. (Dutch, A., Eggleton, P., Biochem. J. 32, 209 (1938)), discloses the results that pK2 of anserin was 7.04. In these references, pK2 means the dissociation constant of imidazole group and corresponds to pKR in Table 1. […] If converted to pKR, it is 4.8. Thus, each pKR for anserine, carnosine and creatinine in Table 1 was well consistent with the data described in the references.

[4] = 0.1 M aqueous solution, titration curve

NCCC(=O)N[C@@H](Cc1c[nH]cn1)C(=O)O [Carnosine, β-alanyl histidine]
pI (isoelectric point) [1, 4]: 8.3
pK1 (dissociation of carboxyl group) [1, 4]: 2.8
pK2 (dissociation of amino group) [1, 4]: 9.8
pKR (dissociation of imidazole group) [1, 4]: 6.8
positive charge ([1]; pH 5, FIG. 1): 1 valent
positive charge ([1]; pH 7, FIG. 1): 0.5 valent
positive charge ([1]; pH 8, FIG. 1): 0.1 valent
pK2 (dissociation constant of imidazole group, corresponds to pKR in Table 1) ([2]; literature (Bate-Smith 1938; Deutsch and Eggleton 1938)): 6.83

CN1CC(=O)NC1=N [Creatinine, creatinine]
pKR converted from pKb [3]: 4.8
pKb ([2]; literature (Eadie and Hunter 1926)): 9.20
